Assay [1] concerns Streptococcus pneumoniae 1/1. In words: MIC against Streptococcus pneumoniae 1/1. The assay is classed as cell-based.
For assay [2], the system named is Staphylococcus aureus 101. In words: MIC against Staphylococcus aureus 101. The assay is classed as cell-based. The settings on record: read-out: MIC Sa101.
For assay [3], the target named is T1, purified DHFR of strain Sp1/1 of Streptococcus pneumoniae (Streptococcus pneumoniae serotype 4, UniProt Q54801).
T1 sequence (Q54801 1-168 I100L): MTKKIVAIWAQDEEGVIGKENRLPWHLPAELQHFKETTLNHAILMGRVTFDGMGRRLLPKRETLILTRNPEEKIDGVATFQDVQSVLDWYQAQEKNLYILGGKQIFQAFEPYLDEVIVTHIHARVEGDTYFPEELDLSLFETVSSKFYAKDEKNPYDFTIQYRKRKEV
In kind it is biochemical. As to conditions: IC50 against purified DHFR of strain Sp1/1.

For assay [4], the target named is purified DHFR of strain 157/4696 of Staphylococcus aureus (Staphylococcus aureus, UniProt P13955). Nature of the assay: biochemical.
Setting [5] is: Table 2, Streptococcus pneumoniae 1/1, trimethoprim- and penicillin-resistant, serotype 6, clinical isolate, read-out: MIC Sp1/1.
Setting [6] is: Table 2, Staphylococcus aureus 101, MRSA- and trimethoprim-resistant, clinical isolate.

Converted amounts (≈) assume the structure as drawn. Where two headings read alike, the source gives them in different places.

Chain of purified DHFR of strain 157/4696 of Staphylococcus aureus (P13955 whole entry): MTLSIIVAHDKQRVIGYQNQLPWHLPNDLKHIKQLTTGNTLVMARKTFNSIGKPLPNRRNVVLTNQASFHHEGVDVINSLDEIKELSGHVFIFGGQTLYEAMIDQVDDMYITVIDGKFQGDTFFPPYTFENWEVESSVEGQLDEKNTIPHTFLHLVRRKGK

Regarding `CCOc1cc(Cc2cnc(N)nc2N)cc(OCC)c1-c1ccc2c(c1)NCCO2` [Example 02-h, 5-[4-(3,4-Dihydro-2H-benzo[1.4]oxazin-6-yl)-3,5-diethoxy-benzyl]-pyrimidine-2,4-diamine], the MIC was determined as 4 µg/mL (≈ 9.49 µM) in assay [1] (setting [5]) and 8 µg/mL (≈ 19 µM) in assay [2] (setting [6]). Besides, the results for the half-maximal inhibitory concentration (IC50) in assay [3] (Table 2) and in assay [4] were 38 nM and 1200 nM, respectively.
For `CCOc1cc(Cc2cnc(N)nc2N)cc(OCC)c1-c1ccc(S(C)(=O)=O)cc1` [Example 02-i, 5-(2,6-Diethoxy-4′-methanesulphonyl-biphenyl-4-ylmethyl)-pyrimidine-2,4-diamine], the MIC amounted to 2 µg/mL (≈ 4.52 µM) in assay [1] (setting [5]) and 8 µg/mL (≈ 18.1 µM) in assay [2] (setting [6]). In addition, the concentration for half-maximal inhibition (IC50) in assay [3] (Table 2) was 100 nM; in assay [4], 1600 nM.
On the same counts, the results for `CCOc1cc(Cc2cnc(N)nc2N)cc(OCC)c1-c1ccc(OC)c(OC)c1` [Example 02-l, 5-(2,6-Diethoxy-3′,4′-dimethoxy-biphenyl-4-ylmethy)-pyrimidine-2,4-diamine] are 4 µg/mL (≈ 9.42 µM), 8 µg/mL (≈ 18.8 µM), 160 nM and 8000 nM.
On the same counts, the results for `CCOc1cc(Cc2cnc(N)nc2N)cc(OCC)c1-c1cccs1` [Example 02-m, 5-(3,5-Diethoxy-4-thiophen-2-yl-benzyl)-pyrimidine-2,4-diamine] are 4 µg/mL (≈ 10.8 µM), 8 µg/mL (≈ 21.6 µM), 58 nM and 700 nM.
On the same counts, the results for `CCOc1cc(Cc2cnc(N)nc2N)cc(OCC)c1-c1ccc(OC)c(C)c1` [Example 02-n, 5-(2,6-Diethoxy-4′-methoxy-3′-metyl-biphenyl-4-ylmethyl)-pyrimidine-2,4-diamine] are 4 µg/mL (≈ 9.79 µM), 8 µg/mL (≈ 19.6 µM), 110 nM and 1400 nM.
As for `CCOc1cc(Cc2cnc(N)nc2N)cc(OCC)c1-c1ccco1` [Example 02-o, 5-(3,5-Diethoxy-4-furan-2-yl-benzyl)-pyrimidine-2,4-diamine], the MIC in assay [1] (setting [5]) and in assay [2] (setting [6]) was 4 µg/mL (≈ 11.3 µM) in each case. Also, the IC50 in assay [3] (Table 2) amounted to 100 nM; in assay [4], 2200 nM.
Consider `CCOc1cc(Cc2cnc(N)nc2N)cc(OCC)c1-c1cccnc1` [Example 02-p, 5-(3,5-Diethoxy-4-pyridin-3-yl-benzyl)-pyrimidine-2,4-diamine], for which the MIC in assay [1] (setting [5]) amounted to 4 µg/mL (≈ 10.9 µM); in assay [2] (setting [6]), 8 µg/mL (≈ 21.9 µM). Moreover, the half-maximal inhibitory concentration (IC50) in assay [3] (Table 2) was determined as 100 nM; in assay [4], 2200 nM.
In the case of `CCOc1cc(Cc2cnc(N)nc2N)cc(OCC)c1-c1ccc(C)cc1` [Example 02-q, 5-(2,6-Diethoxy-4′-methyl-biphenyl-4-ylmethyl)-pyrimidine-2,4-diamine], the MIC in assay [1] (setting [5]) was 8 µg/mL (≈ 21.1 µM); in assay [2] (setting [6]), 4 µg/mL (≈ 10.6 µM). In addition, the IC50 in assay [3] (Table 2) stood at 79 nM; in assay [4] it was 1100 nM.
In the case of `CCOc1cc(Cc2cnc(N)nc2N)cc(OCC)c1-c1ccc2c(c1)OCO2` [Example 02-r, 5-(4-Benzo[1,3]dioxol-5-yl-3,5-diethoxy-benzyl)-pyrimidine-2,4-diamine], the MIC in assay [1] (setting [5]) and in assay [2] (setting [6]) was 4 µg/mL (≈ 9.79 µM) each time. Also, the half-inhibitory concentration (IC50) in assay [3] (Table 2) turned out to be 70 nM; in assay [4], 2500 nM.
For the molecule `CCOc1cc(Cc2cnc(N)nc2N)cc(OCC)c1-c1ccc(O)c(C)c1` [Example 02-s, 4′-(2,4-Diamino-pyrimidin-5-ylmethyl)-2′,6′-diethoxy-3-methyl-biphenyl-4-ol], the MIC is 8 µg/mL (≈ 20.3 µM) in assay [1] (setting [5]) and 4 µg/mL (≈ 10.1 µM) in assay [2] (setting [6]). Moreover, the IC50 in assay [3] (Table 2) is 83 nM; in assay [4], 2200 nM.
In the case of `CCOc1cc(Cc2cnc(N)nc2N)cc(OCC)c1-c1ccc(O)cc1` [Example 02-t, 4′-(2,4-Diamino-pyrimidin-5-ylmethyl)-2′,6′-diethoxy-biphenyl-4-ol], the MIC was found to be 4 µg/mL (≈ 10.5 µM) in assay [1] (Streptococcus pneumoniae, 1/1, read-out: MIC Sp1/1) and 8 µg/mL (≈ 21 µM) in assay [2] (Staphylococcus aureus, MRSA). The half-maximal inhibitory concentration (IC50) in assay [3] (Table 2) was 81 nM; in assay [4], 1100 nM.
As for `CCOc1cc(Cc2cnc(N)nc2N)cc(OCC)c1-c1cccc(C#N)c1` [Example 02-u, 4′-(2,4-Diamino-pyrimidin-5-ylmethyl)-2′,6′-diethoxy-biphenyl-3-carbonitrile], the values for the MIC in assay [1] (setting [5]) and in assay [2] (setting [6]) were 4 µg/mL (≈ 10.3 µM) and 8 µg/mL (≈ 20.5 µM), respectively. The values for the IC50 in assay [3] (Table 2) and in assay [4] were 180 nM and 4000 nM, respectively.
On the same counts, the results for `CCOc1cc(Cc2cnc(N)nc2N)cc(OCC)c1-c1ccc(N(C)C)cc1` [Example 02-v, 5-(4′-Dimethylamino-2,6-diethoxy-biphenyl-4-ylmethyl)-pyrimidine-2,4-diamine] are 4 µg/mL (≈ 9.82 µM), 8 µg/mL (≈ 19.6 µM), 110 nM and 10000 nM.
With `CCOc1cc(Cc2cnc(N)nc2N)cc(OCC)c1-c1ccc(CN2CCOCC2)cc1` [Example 02-w, 5-(2,6-Diethoxy-4′-morpholine-4-ylmethyl-biphenyl-4-ylmethyl)-pyrimidine-2,4-diamine], the figures for the MIC in assay [1] (setting [5]) and in assay [2] (setting [6]) were 4 µg/mL (≈ 8.63 µM) and 8 µg/mL (≈ 17.3 µM), respectively. Further, the IC50 in assay [3] (Table 2) worked out at 280 nM; in assay [4] it was 2200 nM.
On the same counts, the results for `CCOc1cc(Cc2cnc(N)nc2N)cc(OCC)c1-c1ccc2c(c1)OCCO2` [Example 02-x, 5-[4-(2,3-Dihydro-benzo[1,4]dioxin-6-yl)-3,5-diethoxy-benzyl]-pyrimidine-2,4-diamine] are 2 µg/mL (≈ 4.73 µM), 8 µg/mL (≈ 18.9 µM), 75 nM and 2330 nM.
`CCOc1cc(Cc2cnc(N)nc2N)cc(OCC)c1-c1cccc(N(C)C)c1` [Example 02-y, 5-(3′-Dimethylamino-2,6-diethoxy-biphenyl-4-ylmethyl)-pyrimidine-2,4-diamine]: the MIC in assay [1] (setting [5]) is 4 µg/mL (≈ 9.82 µM); in assay [2] (setting [6]), 8 µg/mL (≈ 19.6 µM). Moreover, the concentration for half-maximal inhibition (IC50) is 150 nM in assay [3] (Table 2) and 800 nM in assay [4].
On the same counts, the results for `CCOc1cc(Cc2cnc(N)nc2N)cc(OCC)c1-c1cccc([N+](=O)[O-])c1` [Example 02-z, 5-(2,6-Diethoxy-3′-nitro-biphenyl-4-ylmethyl)-pyrimidine-2,4-diamine] are 8 µg/mL (≈ 19.5 µM), 8 µg/mL (≈ 19.5 µM), 60 nM and 1600 nM.
As for `CCOc1cc(Cc2cnc(N)nc2N)cc(OCC)c1-c1cccc(N)c1` [Example 2a, 5-(3′-Amino-2,6-diethoxy-biphenyl-4-ylmethyl)-pyrimidine-2,4-diamine], the MIC in assay [1] (Table 1, Streptococcus pneumoniae 1/1, trimethoprim- and penicillin-resistant, serotype 6, clinical isolate, read-out: MIC Sp1/1) was found to be 4 µg/mL (≈ 10.5 µM); in assay [2] (Table 1, Staphylococcus aureus 101, MRSA- and trimethoprim-resistant, clinical isolate), 8 µg/mL (≈ 21.1 µM). In addition, the results for the half-inhibitory concentration (IC50) in assay [3] (Table 1) and in assay [4] were 30 nM and 750 nM, respectively.
Take `CCOc1cc(Cc2cnc(N)nc2N)cc(OCC)c1-c1ccc(COCC(=O)N2CCOCC2)s1` [Example 03-a, 2-[5-[4-(2,4-Diamino-pyrimidin-5-ylmethyl)-2,6-diethoxy-phenyl]-thiophen-2-ylmethoxyl]-1-morpholin-4-yl-ethanone]: the MIC in assay [1] (setting [5]) worked out at 2 µg/mL (≈ 3.79 µM); in assay [2] (setting [6]), 8 µg/mL (≈ 15.2 µM). Further, the half-maximal inhibitory concentration (IC50) is 31 nM in assay [3] (Table 2) and 1800 nM in assay [4].
On the same counts, the results for `CCOc1cc(Cc2cnc(N)nc2N)cc(OCC)c1-c1ccc(COCC(=O)N2CCSCC2)s1` [Example 03-b, 2-[5-[4-(2,4-Diamino-pyrimidin-5-ylmethyl)-2,6-diethoxy-phenyl]-thiophen-2-ylmethoxy]-1-thiomorpholin-4-yl-ethanone] are 2 µg/mL (≈ 3.68 µM), 8 µg/mL (≈ 14.7 µM), 19 nM and 1600 nM.

The IC50 is the concentration needed to halve the response being measured. A higher IC50 goes with weaker potency.

Values taken from US6821980B1, “Substituted 5-benzyl-2,4-diaminopyrimidines” (Basilea Pharmaceutica AG, priority 1999, dated 2004).
